Inhibition and IC50 data for 51 compounds are collected here from patent US20250340543A1, “GPR84 ANTAGONISTS AND USES THEREOF” (Liminal BioSciences Limited, priority 2021, published 2025).

For orientation: inhibition means the relative decrease from the control value, in per cent. Low values mean a weak effect, high ones a strong effect. As a reminder, the IC50 is the point on the concentration scale where inhibition reaches its midpoint.

This experiment deals with GPR84 (Homo sapiens (Human), UniProt Q9NQS5). Description: Gai biosensor BRET assay (GPR84-mediated activation of Gai, antagonist mode against agonist ZQ-16). The following applies: for inhibition at 25 µM: compound tested at 25 μM (concentration code G); for inhibition at 10 µM: compound tested at 10 μM (concentration code D); for IC50: HEK293 cells, 200 nmol/L GPR84 agonist ZQ-16, read-out: hGPR84 IC50; for inhibition at 2 µM: compound tested at 2 μM (concentration code A). In kind it is cell-based. The method in brief:
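Transiently transfected HEK293 cells expressing GPR84, Gαi2-Rluc8, GFP10-Gγ2 and Gβ1, in Tyrode's buffer pH 7.5. Compounds pre-incubated 5 min at 37° C, then 200 nmol/L ZQ-16 for 5 min at room temperature; BRET² with coelenterazine 400A, ligand-promoted net BRET after background and vehicle subtraction.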
(In general: BRET reads energy transfer from a luciferase to a nearby fluorophore.)

GPR84, sequence (Q9NQS5 whole entry): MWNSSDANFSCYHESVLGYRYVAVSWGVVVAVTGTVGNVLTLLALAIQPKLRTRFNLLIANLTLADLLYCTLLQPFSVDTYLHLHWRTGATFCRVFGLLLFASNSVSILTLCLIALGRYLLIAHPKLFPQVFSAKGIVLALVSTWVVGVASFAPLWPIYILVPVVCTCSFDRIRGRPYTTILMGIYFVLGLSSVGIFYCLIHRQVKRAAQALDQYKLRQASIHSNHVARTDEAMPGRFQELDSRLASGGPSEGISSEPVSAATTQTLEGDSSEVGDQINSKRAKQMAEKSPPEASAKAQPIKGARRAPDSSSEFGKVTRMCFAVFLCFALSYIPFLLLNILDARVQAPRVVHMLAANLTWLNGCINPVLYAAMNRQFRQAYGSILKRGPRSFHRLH

Compound `O=C(CC1CCCCO1)N1Cc2ccc(C#CC3CC3)cc2C1` (stereo not drawn) [Compound I-186] gave an inhibition at 25 µM of 25 to 50%.
`O=C(CC1CCCCO1)N1CCc2cc(C#CC3CC3)ccc2C1` (stereo not drawn) [Compound I-187]: the inhibition at 10 µM was in the range of 25 to 50%.
`Cc1ccc(-c2ccc3c(c2)CN(C(=O)CC2CCCCO2)C3)cn1` (stereo not drawn) [Compound I-197] registered an inhibition at 25 µM below 25%.
Still for that read-out and setting: next, `Cc1ccc(-c2ccc3c(c2)CCN(C(=O)CC2CCCCO2)C3)cn1` (stereo not drawn) [Compound I-203]: 25 to 50%; `O=c1nc(OCC2COCCO2)cc2n1CCOc1cc(Cl)ccc1-2` (stereo not drawn) [Compound I-206]: 25 to 50%.
For the compound `COc1ccc(OCC2COCCO2)cc1Cc1ccc(C#CC2CC2)cc1` (stereo not drawn) [Compound I-210], the inhibition at 15 µM (compound tested at 15 μM (concentration code F)) is below 25%.
`Cc1ccc(-c2ccc3c(c2)OCCn2c-3cc(OCC3COCCO3)nc2=O)cn1` (stereo not drawn) [Compound I-211]: the IC50 lay within 5 to 10 µM and the inhibition at 25 µM is 25 to 50%.
Taken in the same sequence, the figures for `O=c1nc(OCC2COCCO2)cc2n1CCOc1cc(C#CC3CC3)ccc1-2` (stereo not drawn) [Compound I-214] were below 5 µM and above 75%.
For `COc1ccc2c(-c3ccc(C#CC4CC4)cc3)nnn2c1` [Compound I-215], where the note is “compound tested at 5 μM (concentration code C)”, the inhibition at 5 µM was below 25%.
The compound `COc1ccc2nc(-c3ccc(C#CC4CC4)cc3)cn2c1` [Compound I-216] yielded an inhibition at 10 µM below 25%.
On the same count and under the same terms, next, `O=C(CC1CCOc2ccccc21)N1Cc2ccc(C#CC3CC3)cc2C1` (stereo not drawn) [Compound I-217]: below 25%.
Same read-out and setting: next, `COc1ccc([C@@H](C)n2c(C)cc(OCC3COCCO3)cc2=O)cc1` (stereo partly drawn) [Compound I-218]: 25 to 50%; `CC#Cc1ccc([C@@H](C)n2c(C)cc(OCC3COCCO3)cc2=O)cc1` (stereo partly drawn) [Compound I-219]: 50 to 75%; `Cc1cc(OCC2COCCO2)cc(=O)n1C(C)c1ccc(C#CC2CC2)s1` (stereo not drawn) [Compound I-220]: below 25%.
`Cc1cc(OCC2COCCO2)cc(=O)n1C(C)c1cc(C#CC2CC2)cs1` (stereo not drawn) [Compound I-221] registered an inhibition at 10 µM of 25 to 50%.
The same measure, in the same setting: the figure for `Cc1cc(OCC2COCCO2)cc(=O)n1[C@H](C)c1ccc(N2CC(C)(CO)C2)cc1` (stereo partly drawn) [Compound I-224] is below 25%.
`Cc1cc(OCC2COCCO2)cc(=O)n1-c1ccc(C#CC2CC2)cc1` (stereo not drawn) [Compound I-225]: the inhibition at 10 µM lay within 25 to 50%.
In the case of `Cc1cc(OCC2COCCO2)cc(=O)n1-c1cccc(C#CC2CC2)c1` (stereo not drawn) [Compound I-226], the inhibition at 10 µM was 50 to 75%.
Same read-out and setting: next, `Cc1cc(OCC2OCC(C)(C)CO2)cc(=O)n1[C@H](C)c1ccc(C#CC2CC2)cc1` [Compound I-227]: 50 to 75%; `CC1(C)CN(c2cccc(Cn3ccc(OCC4COCCO4)cc3=O)c2)C1` (stereo not drawn) [Compound I-228]: below 25%.
On the same count and under the same terms, next, `Cc1cc(OCC2Oc3ccccc3O2)cc(=O)n1[C@H](C)c1ccc(C#CC2CC2)cc1` [Compound I-230]: below 25%; `Cc1cc(OC[C@@H]2COCCO2)cc(=O)n1Cc1cc(C#CC2CC2)ccn1` [Compound I-231]: below 25%.
With `Cc1cc(OC[C@@H]2CCCOC2)cc(=O)n1[C@H](C)c1ccc(C#CC2CC2)cc1` [Compound I-232], the concentration for half-maximal inhibition (IC50) is below 5 µM and the inhibition at 10 µM is above 75%.
`Cc1cc(OC[C@@H]2COCCO2)cc(=O)n1Cc1cccc(C#CC2CC2)c1` [Compound I-233] yielded an inhibition at 10 µM of 25 to 50%.
Still for that read-out and setting: next, `Cc1cc(OCC2COCCO2)cc(=O)n1CCc1ccc(C#CC2CC2)cc1` (stereo not drawn) [Compound I-234]: 50 to 75%; `Cc1cc(OCc2ncccn2)cc(=O)n1[C@H](C)c1ccc(N2CC(C)(C)C2)cc1` [Compound I-235]: below 25%.
The compound `Cc1cc(OCc2ncccn2)cc(=O)n1[C@@H](C)c1ccc(C#CC2CC2)cc1` [Compound I-236] had an inhibition at 10 µM below 25%.
The same measure, in the same setting: the figure for `Cc1cc(OCc2ncccn2)cc(=O)n1Cc1ccc(C#CC2CC2)cc1` [Compound I-237] is 50 to 75%; for `Cc1cc(OCc2ncccn2)cc(=O)n1CCc1ccc(C#CC2CC2)cc1` [Compound I-238] it is above 75%; for `Cc1cc(C#CC2CC2)ccc1C(C)n1ccc(OC[C@@H]2COCCO2)cc1=O` (stereo partly drawn) [Compound I-239] it is below 25%.
Same read-out and setting: the figure for `CC(c1ccc(C#CC2CC2)cn1)n1ccc(OC[C@@H]2COCCO2)cc1=O` (stereo partly drawn) [Compound I-240] is 25 to 50%.
In the case of `Cc1c(C#CC2CC2)cccc1Cn1c(C)cc(OCc2ncccn2)cc1=O` [Compound I-241], the inhibition at 2 µM was below 25%.
For `Cc1cc(OCc2ncccn2)cc(=O)n1Cc1ccc(N2CC(C)(C)C2)cc1` [Compound I-242], the inhibition at 10 µM is below 25%.
Still for that read-out and setting: next, `Cc1cc(OCc2ncccn2)cc(=O)n1[C@H](C)c1ccc(C#N)cc1` [Compound I-243]: below 25%; `Cc1cc(OCc2ncccn2)cc(=O)n1-c1ccc(C#CC2CC2)cc1` [Compound I-244]: below 25%.
Compound `Cc1cc(OCc2ncccn2)cc(=O)n1-c1cccc(C#CC2CC2)c1` [Compound I-245] returned an inhibition at 10 µM below 25%.
Same read-out and setting: the figure for `Cc1cc(OC[C@@H]2COCCO2)cc(=O)n1C(C)c1ccc(C#CC2CC2)cn1` (stereo partly drawn) [Compound I-246] is below 25%; for `COc1cnc(COc2cc(C)n([C@H](C)c3ccc(C#CC4CC4)cc3)c(=O)c2)nc1` [Compound I-247] it is above 75%; for `CC1(C)CN(c2cccc(Cn3ccc(OCc4ncccn4)cc3=O)c2)C1` [Compound I-248] it is 25 to 50%.
Compound `CC(c1ccc(C#CC2CC2)cn1)n1ccc(OCc2ncccn2)cc1=O` (stereo not drawn) [Compound I-249] showed an inhibition at 10 µM of 25 to 50%.
On the same count and under the same terms, the figure for `CC(c1cc(C#CC2CC2)ccn1)n1ccc(OCc2ncccn2)cc1=O` (stereo not drawn) [Compound I-250] is 25 to 50%; for `Cc1cc(C#CC2CC2)ccc1C(C)n1ccc(OCc2ncccn2)cc1=O` (stereo not drawn) [Compound I-251] it is below 25%.
On to `Cc1cc(OCc2ncccn2)cc(=O)n1[C@H](C)c1cccc(C#CC2CC2)c1` [Compound I-252], for which the inhibition at 2 µM was below 25%.
`Cc1cc(OCc2ncccn2)cc(=O)n1C(C)c1ccc(C#CC2CC2)cn1` (stereo not drawn) [Compound I-253] showed an inhibition at 10 µM of 50 to 75%.
Same read-out and setting: next, `Cc1cc(C#CC2CC2)cnc1C(C)n1ccc(OCc2ncccn2)cc1=O` (stereo not drawn) [Compound I-254]: below 25%; `CC(c1ccc(NC(=O)C2CC2)cc1)n1ccc(OCc2ncccn2)cc1=O` (stereo not drawn) [Compound I-255]: below 25%.
As to `Cc1cc(OCc2ncccc2Cl)cc(=O)n1[C@H](C)c1ccc(C#CC2CC2)cc1` [Compound I-256], the IC50 was below 5 µM and the inhibition at 2 µM is above 75%.
With `Cc1cc(OCc2cnccn2)cc(=O)n1[C@H](C)c1ccc(C#CC2CC2)cc1` [Compound I-257], the IC50 is below 5 µM and the inhibition at 2 µM is above 75%.
Taken in the same sequence, the figures for `Cc1cc(OCc2ccncn2)cc(=O)n1[C@H](C)c1ccc(C#CC2CC2)cc1` [Compound I-258] were below 5 µM and above 75%.
On to `Cc1cc(OCc2ncccn2)cc(=O)n1[C@H](C)c1ccc(C#CCN2CC(C)(C)C2)cc1` [Compound I-259], for which the inhibition at 10 µM was below 25%.
Still for that read-out and setting: the figure for `Cc1cc(OCc2ncc(Cl)cn2)cc(=O)n1[C@H](C)c1ccc(C#CC2CC2)cc1` [Compound I-260] is above 75%.
